Test results published in PubChem BioAssay (NCI).
Values joined by “and” are separate entries in the source; they are usually repeats but may differ in a detail not shown here. Identical values can stand only once.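 48-hour exposure; five concentrations; linearly interpolated endpoints. GI50 is the concentration that inhibits growth by half. TGI is the concentration that stops growth completely.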

How the values were obtained:
Assay in all cases: DTP human tumour cell line panel, 48 h
SK-OV-3 ovarian = tested on: SK-OV-3 ovarian
KM12 colon = tested on: KM12 colon
MCF7 breast = tested on: MCF7 breast
UACC-62 melanoma = tested on: UACC-62 melanoma
SF-268 CNS = tested on: SF-268 CNS
UACC-257 melanoma = tested on: UACC-257 melanoma
IGROV1 ovarian = tested on: IGROV1 ovarian
PC-3 prostate = tested on: PC-3 prostate
DU-145 prostate = tested on: DU-145 prostate
COLO 205 colon = tested on: COLO 205 colon

| Compound | TGI (SK-OV-3 ovarian) | TGI (KM12 colon) | TGI (MCF7 breast) | TGI (UACC-62 melanoma) | TGI (SF-268 CNS) | TGI (UACC-257 melanoma) | TGI (IGROV1 ovarian) [µM] | TGI (PC-3 prostate) [µM] | TGI (DU-145 prostate) [µM] | TGI (COLO 205 colon) | GI50 (SK-OV-3 ovarian) | GI50 (KM12 colon) | GI50 (MCF7 breast) | GI50 (UACC-62 melanoma) | GI50 (UACC-257 melanoma) | GI50 (PC-3 prostate) | GI50 (COLO 205 colon) |
| --- | --- | --- | --- | --- | --- | --- | --- | --- | --- | --- | --- | --- | --- | --- | --- | --- | --- |
| Cc1cccc(CC(Cc2ccc(C)cc2C(=O)O)C(=O)O)c1 (configuration not stated) | > 100 µM | > 100 µM | > 100 µM | 96.5 µM | > 100 µM | > 100 µM | > 100 | > 100 | > 100 | > 100 µM |  |  |  |  |  |  |  |
| [N-]=[N+]=CC(=O)OCCCCl | > 100 µM | > 100 µM | > 100 µM | > 100 µM | > 100 µM | > 100 µM | > 100 | > 100 | > 100 | > 100 µM |  |  |  |  |  |  |  |
| Cc1cc2nc3c(C#N)c4c(c(-c5ccc(Cl)cc5)n3c2cc1C)CCC4 | 34.1 µM | 47.8 µM | > 100 µM | 33.9 µM | 57.9 µM | 41.4 µM | 36.2 | 97.7 | 44 | 39.1 µM |  |  |  |  |  |  |  |
| CCCCOC(=O)C1CC[C@H]2[C@@H]3CCc4cc(OC(=O)c5cccc6c(=O)c7ccccc7[nH]c56)ccc4[C@H]3CC[C@]12C (some centres not stated) | 18 µM | 17 µM | 25.8 µM | 13.3 µM | 19.6 µM | 15.3 µM | 14.9 | 15.6 | 14.9 | 13.8 µM |  |  |  |  |  |  |  |
| CC1OC2OC3C(OCC(O)C3O)OC(=O)[C@]34CCC(C)(C)CC3C3=CCC5[C@@]6(C)C[C@H](O)[C@H](OC7OC(CO)C(O)C(O)C7OC7OCC(OC(=O)CC(C)(O)CC(=O)OC1C(O)C2O)C(O)C7O)[C@@](C)(CO)C6CC[C@@]5(C)[C@]3(C)CC4 (some centres not stated) | 10.4 µM | 10.5 µM | 26.4 µM | 14.4 µM | 9.2 µM | 6.69 µM | 16.9 | 6.72 | 14.7 | 4.39 µM |  |  |  |  |  |  |  |
| Cc1ccc2nc(-c3ccc(C(C)(C)C)cc3)oc(=O)c2c1 | 62.1 µM | 20.3 µM | 63.1 µM | 49.3 µM | 70.7 µM | 46.2 µM | 87.6 | 69.6 | 68.4 | 35.5 µM |  |  |  |  |  |  |  |
| COC1C(N(C)C)=C(c2ccccc2)C(=O)N2CCc3ccccc3C12 (configuration not stated) | > 100 µM | > 100 µM | > 100 µM | > 100 µM | > 100 µM | > 100 µM | > 100 | > 100 | > 100 | > 100 µM |  |  |  |  |  |  |  |
| COC(=O)Nc1nc2ccc(S(=O)(=O)N3CCOCC3)cc2[nH]1 | > 100 µM | > 100 µM | > 100 µM | > 100 µM | > 100 µM | > 100 µM | > 100 | > 100 | > 100 | > 100 µM |  |  |  |  |  |  |  |
| COc1ccc(C2C(=O)c3c(OC)cc(OC)cc3OC2c2cccnc2)cc1 (configuration not stated) | > 100 µM | > 100 µM | > 100 µM | > 100 µM | > 100 µM | > 100 µM | > 100 | > 100 | > 100 | > 100 µM |  |  |  |  |  |  |  |
| C/C(=N\Nc1nc2ccccc2s1)c1cc2ccccc2cn1 | 10.7 µM | 94.4 µM | > 100 µM | 21.1 µM | > 100 µM | 57.8 µM | 16 | > 100 | 12.6 | 13.3 µM |  |  |  |  |  |  |  |
| Cn1c(=O)c2c(nc3sc4ccccc4c(=O)n32)n(C)c1=O | > 100 µM | > 100 µM | > 100 µM | > 100 µM | > 100 µM | > 100 µM | > 100 | > 100 | > 100 | > 100 µM |  |  |  |  |  |  |  |
| CC1=CP(=O)(c2c(C(C)C)cc(C(C)C)cc2C(C)C)CCC1Cl (configuration not stated) | 36.3 µM | 40.2 µM | 35.5 µM | 26.1 µM | 35.4 µM | 24.9 µM | 40.9 | 28 | 37.1 | 29.8 µM |  |  |  |  |  |  |  |
| Cc1ccc2c(c1)nc1n2C(N)=Nc2ccccc2S1 | > 100 µM | > 100 µM | > 100 µM | > 100 µM | > 100 µM | > 100 µM | > 100 | > 100 | > 100 | > 100 µM |  |  |  |  |  |  |  |
| CC1(C)COC2=C(C1)C(=O)c1ccccc1C2=O | 3.72 µM | 3.23 µM | 2.99 µM | 2.53 µM | 3.57 µM | 2.11 µM | 3.45 | 3.58 | 3.07 | 4.04 µM |  |  |  |  |  |  |  |
| COc1nc2ccc(COc3ccc(C(=O)O)cc3)cc2nc1OC | > 100 µM | > 100 µM | > 100 µM | > 100 µM | > 100 µM | > 100 µM | > 100 | > 100 | > 100 | > 100 µM |  |  |  |  |  |  |  |
| CC(=O)OCC1OC(n2c(S)c(C#N)c(-c3ccccc3)c(C#N)c2=O)C(OC(C)=O)C(OC(C)=O)C1OC(C)=O (configuration not stated) | > 100 µM and 96.6 µM | > 100 µM and 52 µM | > 100 µM and 97.6 µM | > 100 µM and 59.5 µM | > 100 µM and 61.7 µM | > 100 µM and 81.4 µM | > 100 | > 100 | > 100 | > 100 µM and 65.3 µM | 99.5 µM and 32.1 µM | > 100 µM and 21.8 µM | > 100 µM and 33.7 µM | 82.3 µM and 23.2 µM | > 100 µM and 36.2 µM | > 100 µM and 43.5 µM | > 100 µM and 26.1 µM |
| O=C(O)[C@H](CCC[C@H]1C(=O)O[C@H](c2ccccc2)[C@H](c2ccccc2)N1C(=O)OCc1ccccc1)N[C@@H](c1ccccc1)[C@H](O)c1ccccc1 | > 100 µM | 40.4 µM | > 100 µM | 44.1 µM | > 100 µM | > 100 µM | > 100 | > 100 | > 100 | > 100 µM |  |  |  |  |  |  |  |
| COC1(CC[C@@H](C)COC2OC(CO)C(O)C(O)C2O)O[C@H]2C[C@H]3[C@@H]4CC=C5C[C@@H](OC6OC(CO)C(O)C(OC7OC(CO)C(O)C(O)C7O)C6OC6OC(C)C(O)C(O)C6O)CC[C@]5(C)[C@H]4CC[C@]3(C)[C@H]2[C@@H]1C (some centres not stated) | 15 µM | 4.36 µM | 37.6 µM | > 35.7 µM | 26.4 µM | 26.3 µM | 19.8 | 21.4 | 14.7 | > 37.5 µM |  |  |  |  |  |  |  |
| CC(=O)OCC1OC(n2c(Br)nc3c2c(=O)n(C)c(=O)n3C)C(OC(C)=O)C1OC(C)=O (configuration not stated) | > 100 µM | > 100 µM | > 100 µM | > 100 µM | > 100 µM | > 100 µM | > 100 | > 100 | > 100 | > 100 µM |  |  |  |  |  |  |  |
